Assay results reported in patent publication US20030175680A1, “Methods of treating and preventing bone loss” (priority 2002, published 2003).
Entries after “also recorded” stand apart in the source; their conditions may differ.

Key:
[1] = system: human mesenchymal stem cells (hMSC); assay: Alkaline phosphatase activity in hMSC cultures induced to differentiate into osteoblasts; format: cell-based; settings: for normalized activity of alkaline phosphatase: hMSC, second experimental set, inhibitors added on Day 1 or Day 11, FIG. 6; for alkaline phosphatase activity: hMSC cultured 9 days with 5-LO inhibitors, relative to DMSO, FIG. 8
Method: (§1) In order to determine the ability of inhibitors of 15-lipoxygenase to stimulate bone formation and bone accretion, the ability of the 15-LO inhibitors to promote measures of differentiation of stem cells into bone forming cells (osteoblasts) was tested in vitro.
(§2) Four to eight independent replicate cultures were prepared at each dose level. At the end of the experiments, the cultured cells were harvested by scraping the wells into the appropriate medium for further analysis of either alkaline phosphatase (Sigma kit#104-LL), or cellular calcium (Sigma kit#587-M). Cultures harvested for alkaline phosphatase assessment were harvested by scraping the cells and resuspending into 250 μL Tris buffered 0.1% Triton X-100, and then assayed either fresh or following freeze-thaw. Separate cultures to be assayed for total calcium content were scraped and resuspended into 250 μL 0.5M HCL. Results of these assays were normalized to total cellular DNA, thereby normalizing for differences in cell proliferation. At the same times that cultures were harvested for alkaline phosphatase and calcium, separate replicate cultures were harvested by scraping the cells and resuspending them in 250 μL Hank's Balanced Salt Solution, and cellular number assessed by DNA (DNeasy Tissue Kit, Qiagen cat#69506).
[…] Three different sets of experiments were performed.
The plates were cultured for 14 days. The DNA-normalized activity of alkaline phosphatase is plotted in FIG. 5.
(§3) Inhibitors were added either on Day 1 or Day 11. […] The normalized activity of alkaline phosphatase and calcium content is plotted in FIGS. 6 and 7, respectively.
(§4) As a control for the specificity of 15-LO inhibition for the induction of osteoblast differentiation of stem cells in vitro, the third set of experiments studied eight replicates of standard lipoxygenase inhibitors recognized as more specific to the 5-LO enzyme, rather than the 15-LO enzyme. Zileuton (1,10, 50 uM, prepared at Roche as) Compound 5, AA-861 (1, 10, 50 uM, Sigma #A371 1) and Rev-5901 (15 uM, Sigma #R5523) were prepared fresh every 2-3 days and tested in the human osteoblast precursor cells.

Lck-IL4 transgenic mice = assay: Lck-IL4 transgenic mouse model of osteoporosis: whole body and femoral bone parameters; format: in vivo; settings: Lck-IL4 mice fed Compound 2 150 mg/kg bid in food 84 days vs untreated Lck-IL4 controls
Method: The ability of 15-lipoxygenase inhibitors to promote bone formation in vivo was assessed by measuring the ability of the inhibitors to improve bone parameters in a mouse model of osteoporosis. Constitutive expression of an Interleukin-4 transgene from the Lck gene promoter (Lck-IL4) in C57BL/6 mice results in a severe bone phenotype mimicking osteoporosis.
Mice were permitted access to one-half the daily food intake twice daily at approximately 12 h intervals and diet intake was monitored daily. Water was available ad libitum. The control groups received the same diet without Compound 2. All groups consumed food equally well over the course of the experiment. […]
Bone mineral measurements were determined by dual energy X-ray absorptiometry (DEXA). […]
The cross-sectional geometric parameters of the mid-diaphysis of the femora were determined using a portable x-ray microtomograph (Model 1074, Skyscan, Antwerp, Belgium). Scans were taken at […] intervals, and a slice located at the midpoint of the femur was analyzed for total area (FCSA), cortical area (Ct Ar) and medullary canal area (Ma Ar). In addition, using the pixels contained in the cortical region of the digital image, the radius from the centroid of the cross-section to the outer fiber in the anterior-posterior plane, the areal moment of inertia (Ixx) in the plane of bending and the average cortical thickness (Ct Th) were calculated. […]

[2] = system: human mesenchymal stem cells (hMSC); assay: Total calcium content of hMSC cultures induced to differentiate into osteoblasts; format: cell-based; settings: for calcium content: hMSC, second experimental set, inhibitors added on Day 1 or Day 11, FIG. 7; for culture calcium deposition (total calcium content): hMSC cultured 16 days with 5-LO inhibitors, relative to DMSO or 1,25-Vitamin D3, FIG. 9
Method: as §1, §2, §3, §4

15-LO = 15-LO (UniProt P12530); format: biochemical
Method: IC50's may be determined by standard methods. One particular method is a colorimetric assay in which the putative inhibitor is pre-incubated with the 15-LO enzyme for about 10 minutes followed by addition of linoleic acid substrate for an additional 10 minutes. The product, 13-HPODE, is quantitated by coupling the reduction of the hydroperoxylated lipid to the oxidation on N-benzoyl-leucomethylene blue in the presence of hemin at pH 5. The absorbance of the oxidized methylene blue is directly proportional to the amount of 13-HPODE formed by the 15-LO, and can be measured in the presence and absence of inhibitor.

[3] = system: ovariectomized (Ovx) rats; assay: Estrogen deficiency Rat OVX osteopenia assay, BMD; format: in vivo
Method: In order to determine the ability of inhibitors of 15-lipoxygenase to stimulate bone formation and bone accretion, [[[5-(5,6-difluoro-1H-indol-2-yl)-2-methoxyphenyl]amino]sulfonyl]-carbamic acid-isobutyl ester, Compound 6, was prepared as described in WO0196298 ) and tested in the standard estrogen deficiency Rat OVX osteopenia assay.
Three month old rats are ovariectomized (Ovx) and administered 1 mg/kg/day Compound 6 or 0.1 ug/kg/day 1,25-dihydroxy vitamin D3 (positive control, abbreviated Vit. D in Table) by oral gavage once a day starting at 2 weeks post-ovariectomy and continuing for 7 weeks. The dose was increased to 2 mg/kg/day and continued until 11 weeks. Control groups, both sham (rats that were not ovariectomized) and Ovx, received vehicle only. The bone mineral density of the spine and right hip was determined by using the High Resolution Software package on a QDR-4500 Bone Densitometer^□ (Hologic, Walthan, Mass.). The animals were scanned by placing them in a supine position such that the right femur was perpendicular to the main body and the tibia was perpendicular to the femur. […]

[4] = 3 weeks treatment, 1 mg/kg/day oral gavage
[5] = 7 weeks treatment, 1 mg/kg/day oral gavage
[6] = 11 weeks treatment, dose increased to 2 mg/kg/day after 7 weeks, oral gavage
[7] = 7 weeks treatment, 0.1 ug/kg/day oral gavage (positive control)

15-LO, sequence (P12530 whole entry): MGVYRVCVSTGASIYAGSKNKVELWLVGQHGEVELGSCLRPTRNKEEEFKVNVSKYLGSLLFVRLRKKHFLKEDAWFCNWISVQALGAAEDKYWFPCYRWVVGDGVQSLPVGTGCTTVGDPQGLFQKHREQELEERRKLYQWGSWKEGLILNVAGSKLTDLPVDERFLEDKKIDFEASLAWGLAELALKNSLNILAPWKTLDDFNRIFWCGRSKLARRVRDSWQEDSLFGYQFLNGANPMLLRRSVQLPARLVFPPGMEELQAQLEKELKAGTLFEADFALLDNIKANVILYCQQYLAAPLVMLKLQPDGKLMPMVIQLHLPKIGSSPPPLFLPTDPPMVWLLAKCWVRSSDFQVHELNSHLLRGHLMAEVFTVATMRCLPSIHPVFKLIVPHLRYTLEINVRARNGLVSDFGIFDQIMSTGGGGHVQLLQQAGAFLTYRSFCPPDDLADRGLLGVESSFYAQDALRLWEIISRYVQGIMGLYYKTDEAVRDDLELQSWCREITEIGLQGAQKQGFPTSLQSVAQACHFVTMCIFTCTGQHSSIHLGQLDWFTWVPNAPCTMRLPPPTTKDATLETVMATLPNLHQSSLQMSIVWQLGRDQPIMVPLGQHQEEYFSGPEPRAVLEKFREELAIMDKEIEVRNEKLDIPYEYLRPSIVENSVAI

## c1ccc2c(c1)SCc1c-2[nH]c2ccccc12 [Compound 2, 6,11-dihydro-5-thia-11-aza-benzo[a]fluorene]
[1]
  normalized activity of alkaline phosphatase: most effective when added on Day 1
Lck-IL4 transgenic mice
  Femoral Marrow area: −7%
  Femoral Total area: −4%
[2]
  calcium content: most effective when added on Day 1

## COc1ccc(C(=O)Nc2ccc(Cl)c(Cl)c2)cc1N [Compound 3, 3-amino-N-(3,4-dichlorophenyl)-4-methoxybenzamide]
15-LO
  IC50: ~10 nM
[1]
  normalized activity of alkaline phosphatase: most effective when added on Day 11
[2]
  calcium content: most effective when added on Day 11

## CCCCCCC#Cc1ccccc1/C=C/C(=O)O [Compound 4, trans-3-(2-oct-1-ynyl-phenyl)-acrylic acid]
15-LO
  IC50: 1000 to 3000 nM

## CC(c1cc2ccccc2s1)N(O)C(N)=O (stereo not drawn) [Compound 5, Zilueton]
15-LO; result in words
  IC50 for 15-LO: negative control
[1]; listed as Zileuton
  alkaline phosphatase activity: lack ability to induce; also recorded: lack of a response
[2]; listed as Zileuton
  culture calcium deposition (total calcium content): lack ability to induce; also recorded: lack of a response

## COc1ccc(-c2cc3cc(F)c(F)cc3[nH]2)cc1NS(=O)(=O)NC(=O)OCC(C)C [Compound 6, [[[5-(5,6-difluoro-1H-indol-2-yl)-2-methoxyphenyl]amino]sulfonyl]-carbamic acid-isobutyl ester]
15-LO
  IC50: 25 to 83 nM
[3]; [4]
  BMD Lumbar Spine L2-L4: 0.2347 (0.055) gm mineral/cm^2
  BMD Lumbar Spine L5: 0.2480 gm mineral/cm^2
  BMD Proximal Femur: 0.2838 (0.103) gm mineral/cm^2
[3]; [5]
  BMD Lumbar Spine L2-L4: 0.2474 (0.019) gm mineral/cm^2
  BMD Lumbar Spine L5: 0.2549 gm mineral/cm^2
  BMD Proximal Femur: 0.2932 (0.033) gm mineral/cm^2
[3]; [6]
  BMD Lumbar Spine L2-L4: 0.2507 (0.009) gm mineral/cm^2
  BMD Lumbar Spine L5: 0.2626 gm mineral/cm^2
  BMD Proximal Femur: 0.2986 (0.039) gm mineral/cm^2
[3]; at >3 weeks, result in words
  BMD in the spine: increased BMD
[3]; at >7 weeks, result in words
  BMD in the proximal femur: increased BMD

## CCCCCC(O)c1cccc(OCc2ccc3ccccc3n2)c1 (stereo not drawn) [Rev-5901]
[1]
  alkaline phosphatase activity: lack ability to induce; also recorded: lack of a response
[2]
  culture calcium deposition (total calcium content): lack ability to induce; also recorded: lack of a response

## C=C1/C(=C\C=C2/CCC[C@]3(C)[C@@H]([C@H](C)CCCC(C)(C)O)CC[C@@H]23)C[C@@H](O)C[C@@H]1O [Vit D, 1,25-dihydroxy vitamin D3, reference compound]
[3]; [7]
  BMD Lumbar Spine L2-L4: 0.2628 (0.023) gm mineral/cm^2
  BMD Lumbar Spine L5: 0.2742 gm mineral/cm^2
